Entries after “also recorded” stand apart in the source; their conditions may differ. Read-outs that look alike come from different tables or passages of the source. Starred links: 1 amine or outer side, 2 acyl side, 3 side chain; linkers in the order of their positions; H or OH if unused. Non-standard residues stand in square brackets, D forms with d. Residues, ends and D or L forms follow the SMILES beside them. No end group written: not given here. X1 = N=C(N)NC(=O)c1nc(Cl)c(N(CC(=O)[*:2])[*:1])nc1N
Key:
U87 glioma cells [1] = experiment: Glioma cell death, manual cell counts with trypan blue exclusion; details: for Glioma Effect: cytotoxic concentration: glioma cells
[2] = tested on: [Ca^2+]i in U87 glioma cells; experiment: [Ca2+]i in U87 glioma cells loaded with fura-2AM, quantitative fluorescent microscopy; format: cell-based, human; details: U87 glioma cells
Procedure: Therefore, the levels of [Ca^2+]i in U87 glioma cells loaded with fura-2AM were measured using quantitative fluorescent microscopy. […] The ATP-dependent calcium regulatory mechanisms within U87 glioma cells containing fura-2 were then examined. […] ATP synthase operates in reverse when milimolar concentrations of calcium are stored by the mitochondrion (Nicholls, Bioenergetics, 3, Academic Press, London, 3rd edition (2002)).
Quantitative fluorescent microscopy of [Ca^2+]i levels. [Ca^2+]i levels can be measured in cells loaded with either fura-2A or fura-2FFAM under the conditions described above.

[3] = tested on: glioma cells and primary astrocytes; experiment: Cell entry by confocal microscopy; format: in vitro ADME
trypsin = target: T1, trypsin (Bos taurus, UniProt P00760); experiment: Enzyme digestion with trypsin (negative control), LC-MS/ESI; format: in vitro ADME, bovine; details: for Conclusion (Peptidase: Trypsin): 10 μM conjugate, 10 units enzyme, 25° C., pH 7.4, 24 h
T1 construct: purchased CalBiochem (San Diego, Calif.); host or cells: bovine pancreas
T1 sequence (P00760 24-246): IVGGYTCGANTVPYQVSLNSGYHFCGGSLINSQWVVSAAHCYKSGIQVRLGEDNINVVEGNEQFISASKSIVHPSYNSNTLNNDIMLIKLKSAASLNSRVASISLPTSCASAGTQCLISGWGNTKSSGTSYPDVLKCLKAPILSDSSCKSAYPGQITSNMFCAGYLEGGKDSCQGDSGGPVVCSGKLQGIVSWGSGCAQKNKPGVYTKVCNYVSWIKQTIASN
Procedure: (§1) Compound 3b is a C5am-Gly-peptide conjugate containing two D-amino acids, and compound 3c is a C5am-Gly-peptide conjugate coupled to a peptide to generate an analog of opioid peptides that cross the blood brain barrier (BBB). The resultant conjugates (compounds 3a-c) were tested for selective cleavage by the brain peptidase enkephalinase (neutral endopeptidase 24.11; Calbiochem) via incubation for 24 h in the presence or absence of the enzyme, and aliquots from the reaction solutions were then analyzed by LC-MS to identify the C5am-Gly conjugate (compound 3a), starting material, and enzymatic cleavage products (see, Scheme 3). As negative control experiments, the conjugates were analyzed following treatment with (1) bovine pancreatic trypsin (Calbiochem) or (2) the buffer solutions without enzymes.
(§2) Enzyme digestion. Endopeptidase 24.11 (neutral, porcine kidney) and trypsin (bovine pancreas) were purchased from CalBiochem (San Diego, Calif.) and used as received. Enzymatic cleavage experiments using endopeptidase 24.11 were conducted at 25° C. in a pH 7.4 Tris buffer (150 mM NaCl, 50 mM Tris, 0.1% Triton X-100) as recommended by the manufacturer (see also, Barnes et al., J. Neurochem., 64:1826-1832 (1995), Gafford et al., Biochemistry, 22:3265-3271 (1983)). Similarly, trypsin cleavage experiments were conducted at 25° C. in pH 7.4 Dulbecco's phosphate buffered saline (Gibco; Grand Island, N.Y.). The digestion reactions included 10 μM of the amiloride-peptide conjugate and 10 units of enzyme in 250 μL of buffer. Direct aliquots were analyzed by LC-MS/ESI following a 24 hour incubation period.
(§3) Enzyme Digestion Study. Compounds 3a-d were each incubated at 25° C. with 10 units of enkephalinase (endopeptidase 24.11) to determine their susceptibility towards enzymatic cleavage. Reaction aliquots were taken following a 24 hour incubation period and analyzed directly by LC-MS/ESI (Thermo Finnigan LCQ) for the presence of the starting material and the targeted cleavage product, compound 3a (C5am-Gly). […] Since there are no basic amino acid residues in compounds 3a-d, trypsin was employed as a negative control to ensure that any observed cleavage products could be ascribed only to endopeptidase-specific interactions (Jackson, Protein Science, 8:603-613 (1999)).

[4] = tested on: enkephalinase (endopeptidase 24.11); experiment: Enzyme digestion with enkephalinase, LC-MS/ESI; format: in vitro ADME, porcine; details: for Conclusion (Peptidase: Enkephalinase): 10 μM conjugate, 10 units enzyme, 25° C., pH 7.4, 24 h; for Cleavage by enkephalinase (release of compound 3a): 24 h incubation, LC-MS
Procedure: as §1, §2, §3

NHE1 = NHE1 (Homo sapiens, UniProt P19634); experiment: NHE1 inhibition: sodium-dependent pHi recovery in BCECF-loaded U87 glial cells after ammonium chloride pre-pulse; format: cell-based; set-up: Sodium-dependent proton extrusion in U87 glial cells and in primary astrocytes is mediated by the type 1 sodium proton exchanger (NHE1); endogenous in cells; host or cells: U87 human glioma cells
NHE1, sequence (P19634 whole entry): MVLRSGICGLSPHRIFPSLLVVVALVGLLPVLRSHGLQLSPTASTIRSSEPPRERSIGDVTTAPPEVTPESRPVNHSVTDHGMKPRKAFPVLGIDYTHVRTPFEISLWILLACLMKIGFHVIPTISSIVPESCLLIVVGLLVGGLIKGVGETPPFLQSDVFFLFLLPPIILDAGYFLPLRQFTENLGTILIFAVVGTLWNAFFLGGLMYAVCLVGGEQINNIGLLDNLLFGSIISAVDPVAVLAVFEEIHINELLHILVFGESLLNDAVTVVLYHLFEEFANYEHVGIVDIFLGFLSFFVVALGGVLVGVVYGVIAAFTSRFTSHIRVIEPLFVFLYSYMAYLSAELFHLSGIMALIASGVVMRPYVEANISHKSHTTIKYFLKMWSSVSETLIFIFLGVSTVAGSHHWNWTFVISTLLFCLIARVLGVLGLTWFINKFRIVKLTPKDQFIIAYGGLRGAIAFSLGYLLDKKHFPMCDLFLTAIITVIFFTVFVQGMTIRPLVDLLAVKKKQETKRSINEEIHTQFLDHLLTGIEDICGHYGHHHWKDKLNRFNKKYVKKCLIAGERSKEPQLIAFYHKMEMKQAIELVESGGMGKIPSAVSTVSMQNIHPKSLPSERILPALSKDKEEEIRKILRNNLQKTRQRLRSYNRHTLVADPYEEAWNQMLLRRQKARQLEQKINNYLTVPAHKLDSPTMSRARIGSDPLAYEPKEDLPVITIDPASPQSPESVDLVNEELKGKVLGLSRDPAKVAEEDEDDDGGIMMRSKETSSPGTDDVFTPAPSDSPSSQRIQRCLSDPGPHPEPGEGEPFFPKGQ
Procedure: Intracellular pH Measurements. U87 glial cells were grown on glass coverslips and incubated for 30 minutes at 37° C. with the pH-sensitive dye, 2′,7′-bis(2-carboxyethyl)-5(6)-carboxyfluorescein-AM (BCECF-AM; Molecular Probes, OR). Cells were rinsed with HEPES Ringer buffer twice and maintained at 37° C. for an additional 15 minutes to permit intracellular hydrolysis of the AM ester; trapping BCECF within the cells. Cells on coverslips were placed in a Hitachi F2000 fluorescent spectrophotometer and excited at 440 and 507 nm with fluorescent emissions recorded at 535 nm (Hegde et al., J. Pharmacol. Exp. Ther., 310:67-74 (2004)).
NHE inhibition by compounds 3a and 3c was evaluated using intracellular pH (pHi) measurements in the U87 human glial cell line (Hegde et al., supra). Cells loaded with BCECF were then acidified using the ammonium chloride pre-pulse method (Roos et al., Physiol Rev, 61:296-434 (1981)). The subsequent sodium-dependent recovery of pHi by these cells in the absence of bicarbonate was monitored using a spectrofluorometer. Sodium-dependent proton extrusion in U87 glial cells and in primary astrocytes is mediated by the type 1 sodium proton exchanger (NHE1) (McLean et al., supra; Hegde et al., supra) and was monitored in the presence or absence of compound 3a or 3c.
IC50 drug determinations for NHE1. This method utilizes spectrofluorometric measurements of [H^+]i as described above. The ammonium chloride prepulse method can be used to acidify cells in the presence of HR that is sodium-substituted with NMDG. Perfusion of the acidified cells with HR that contains sodium causes activation of NHE1 that is inhibited in a concentration-dependent fashion as described in McLean et al., supra.

U87 cells = experiment: Intracellular translocation into U87 cells by fluorescence microscopy; details: 50 μM; 90 and 180 min; 380 nm excitation, 510 nm emission
Text: Fluorescence Microscopy. […] Excitation light was provided by a xenon arc lamp coupled to the Polychrome IV scanning monochromator (Till Photonics; Grafelfing, Germany) that alternately excites with different wavelengths. Excitation light was delivered by fiber optics to cells through the epifluorescence port of a Nikon E600 microscope coupled to a Nikon Fluor 60× water immersion lens. The detector was an Orca II-ER CCD digital camera (Hamamatsu USA; Bridgewater, N.J.), which is controlled by C-Imaging Simple PCI software (Compix; Cranberry Township, Pa.).
Intracellular emission intensities were collected in regions of interest (ROI) from an average of 4-8 cells/field using Simple PCI imaging software. […] Images were captured as TIFF files (C-imaging Simple PCI software), and light and fluorescent images of the same field were imported in Photoshop 6.0 and vector graphics added using Illustrator 9.0.1 (Adobe; San Jose, Calif.).

NHE1 and NCX = NHE1 and NCX inhibitors from the literature; cited from earlier work
U87 glioma cells [5] = experiment: Glioma cell proliferation, manual cell counts with trypan blue; format: cell-based, human; details: glioma cells
Procedure: C(5)-amiloride glycine conjugate (C5am-Gly) inhibits NHE1 in U87 glioma cells and is antiproliferative. […] The inhibitory activity of C5am-Gly against NCX was tested and a systematic log dose screen of C5am-Gly against a panel of glioma cells and primary astrocytes was performed.
Manual cell counts with dye exclusion assays. Identical concentrations of glioma cells can be plated on 60 mm dishes and grown until 50% confluent. Following drug treatments, media containing floating cells can be collected in suspension. Adherent cells can be rinsed in calcium- and magnesium-free phosphate-buffered saline (PBS-CMF) and removed by incubation with 0.25% v/v trypsin for 5 minutes (37° C.). Cell suspensions can be combined with the floating fraction and centrifuged at 350×g for 5 minutes. The resulting pellet (one per dish) can be resuspended in equal volumes of PBS-CMF with 0.4% trypan blue and/or 500 nM Sytox Green. 10 μL aliquots of the suspension can be plated on a hemocytometer, and cells can be counted 5 minutes after staining. Simultaneous staining of cells with trypan (TB) and Sytox Green (SG) can be visualized by switching between visible light and fluorescein green.

For N=C(NC(=O)CN)NC(=O)c1nc(Cl)c(N)nc1N [C2am-Gly], the “Potency of killing glioma cells relative to amiloride” value (U87 glioma cells [1]) was “greater than 50 times”, the “Concentration that killed U87 glioma cells” value (U87 glioma cells [1]; U87 glioma cells, C2am-Gly within 24 h) was ≤ 10 µM and the “Glioma Effect: cytotoxic concentration” value (U87 glioma cells [1]) was “≦10 μM cytotoxic”. For the same compound, the “Effect on [Ca2+]i” value [2] was “increased” and the “Cell entry by confocal microscopy” value [3] was “not visualized entering”.
With CC(C)C[C@H](NC(=O)[C@H](Cc1ccccc1)NC(=O)CNC(=O)CNC(=O)CNC(=O)CNc1nc(N)c(C(=O)NC(=N)N)nc1Cl)C(=O)O [Compound 3c, C5am-Gly-Gly-Gly-Gly-Phe-Leu-OH] (H-[X1]GGGFL-OH) the “Conclusion (Peptidase: Trypsin)” value (trypsin) was “Trypsin-mediated cleavage”, the “Cleavage by trypsin (release of compound 3a)” value (trypsin; 24 h incubation, LC-MS) was “did not generate C5am-Gly; also recorded: did not release compound 3a” and the “Conclusion (Peptidase: Enkephalinase)” value [4] was “Enkephalinase-mediated”. The “Cleavage by enkephalinase (release of compound 3a)” value [4] was “selectively cleaved; also recorded: released compound 3a; also recorded: complete digestion” and the IC50 (NHE1; U87 glial cells, sodium-dependent pHi recovery without bicarbonate, read-out: IC50 (μM) +/− SD (NHE inhibition)) was > 100 µM.
For CCN(c1nc(N)c(C(=O)NC(=N)N)nc1Cl)C(C)C [EIPA, ethylisopropylamiloride], the “Intracellular accumulation in U87 cells” value (U87 cells) was “intracellular accumulation; also recorded: rapid cell permeation”, the “Cell entry by confocal microscopy” value ([3]; C2am-Gly after 90-240 minutes) was “Rapid cell permeation” and the “Reversal of NHE1 inhibition after removal of compound” value (NHE1; U87 cells) was “slow and incomplete recovery”.
With CS(=O)(=O)O.CS(=O)(=O)c1cc(C(=O)N=C(N)N)ccc1N1CCCCC1 [HOE694] the “Effect on [Ca2+]i” value [2] was “did not alter”.
In the case of C[C@H](CCC(=O)O)C[C@H](C)C[C@H](C)C(=O)/C=C(\O)[C@H](C)C[C@H](C)C/C=C/[C@@H](C)[C@@H](O)[C@@H](C)[C@@H](O)C[C@@H]1CC[C@@](C)([C@H]2CC[C@@](C)([C@@H](C)O)O2)O1 [Ionomycin], the “Time to kill glioma cells” value (U87 glioma cells [1]) is reported as 90 to 180 min.
In the case of N=C(N)SCCc1ccc(OCc2ccc([N+](=O)[O-])cc2)cc1 [KB-R7943], the “Glioma Effect: cytotoxic concentration” value (U87 glioma cells [1]) is reported as “not cytotoxic”, the “Cytotoxicity to glioma cells” value (U87 glioma cells [1]; manual cell counts, trypan blue cell exclusion assay) is reported as “non-toxic” and the “Effect of pretreatment on [Ca2+]i after calcium release from mitochondrial stores” value ([2]; FCCP or oligomycin) is reported as “did not cause a persistent increase”. The “Rel. Activity” value (NHE1 and NCX) was “NCX > NHE (blocks Ca^2+ influx)” and the “Glioma Effect: antiproliferative concentration” value (U87 glioma cells [5]) was “not antiproliferative”.
In the case of CCOc1ccc(Oc2ccc(OCc3cc(F)ccc3F)cc2)c(N)c1 [SEA0400], the “Rel. Activity” value (NHE1 and NCX) is listed as “NCX only no NHE activity (Ca^2+ influx mode > Ca^2+ efflux mode)”.
In the case of CC[C@H]1/C=C/C=C/C[C@@H](C)[C@H](O)[C@@](C)(O)C(=O)[C@@H](C)[C@H](O)[C@@H](C)C(=O)[C@@H](C)[C@H](O)[C@@H](C)/C=C/C(=O)O[C@@H]2[C@H](C)[C@H](CC1)O[C@]1(CC[C@H](C)[C@H](C[C@@H](C)O)O1)[C@H]2C [oligomycin], the “[Ca2+]i transients” value ([2]; F0F1ATPase inhibition) is reported as > 800 nM.
For C[C@@H]1O[C@@H](O[C@H]2C[C@@H](O)[C@]3(CO)[C@H]4[C@H](O)C[C@]5(C)[C@@H](C6=CC(=O)OC6)CC[C@]5(O)[C@@H]4CC[C@]3(O)C2)[C@H](O)[C@H](O)[C@H]1O [oubain], the “Effect on [Ca2+]i” value [2] was “did not demonstrably alter”.
For C/C=C(/C)C(=O)O[C@H]1C(C)=C2[C@H]([C@@H]1OC(=O)CCCCCCC)[C@@](C)(OC(C)=O)C[C@H](OC(=O)CCC)[C@@]1(O)[C@H]2OC(=O)[C@@]1(C)O [thapsigargin], the “Effect on [Ca2+]i” value [2] was “modest and transient increase”.
In the case of “Compound 3d: C(5)-amiloride peptide conjugate prepared according to Scheme 1 with peptide sequence Gly-Gly-Gly-Phe-Leu (GGGFL; not fully specified (N-terminus); printed as Gly-Gly-Gly-Phe-Leu; also: C(5)-amiloride conjugate)”, the “Conclusion (Peptidase: Trypsin)” value (trypsin) is reported as “Trypsin resistant”, the “Conclusion (Peptidase: Enkephalinase)” value [4] is reported as “Enkephalinase resistant” and the “Cleavage by enkephalinase (release of compound 3a)” value [4] is reported as “did not liberate compound 3a”.

From patent US7863415B2 (The Regents of the University of California, priority 2004, dated 2011)
